We go through 1 compound from patent publication US20050042674A9, “Common ligand mimics: thiazolidinediones and rhodanines” (priority 2002, published 2005).

The target in test [1] is T1, lactate dehydrogenase (LDH) (Oryctolagus cuniculus, UniProt P13491).
T1 construct: LDH from Rabbit Muscle; from tissue; host or cells: rabbit muscle
Kind of test: LDH kinetic assay, spectrophotometric oxidation of NADH at 340 nm. The test is classed as biochemical, Rabbit. The conditions noted are these: Cibacron Blue at 10.3 μM; read-out: inhibition of LDH, positive control. Here is the method: Solutions of 100 μl of the inhibitors in DMSO were prepared to provide a final DMSO concentration of 5% of the total assay volume. […] The reaction was then initiated with 10 μl of LDH from Rabbit Muscle (0.5 μ/ml; 1:2000 dilution of 1.0 mg/ml). […] Reading of the samples was continued until 300 seconds. […] The substrate was kept at a level at least 10 times the Km.

Test [2] deals with 1-deoxy-D-xylulose-5-phosphate reductase (DOXPR) (Escherichia coli, UniProt P45568). The test can be described thus: DOXPR kinetic assay, spectrophotometric oxidation of NADPH at 340 nm. The conditions noted are these: Cibacron Blue at 10.32 μM; read-out: inhibition of DOXPR, positive control. It counts as biochemical. Here is the method: DOXPR was diluted in 10 mM HEPES at a pH of 7.4.
Chain of 1-deoxy-D-xylulose-5-phosphate reductase (DOXPR) (P45568 whole entry): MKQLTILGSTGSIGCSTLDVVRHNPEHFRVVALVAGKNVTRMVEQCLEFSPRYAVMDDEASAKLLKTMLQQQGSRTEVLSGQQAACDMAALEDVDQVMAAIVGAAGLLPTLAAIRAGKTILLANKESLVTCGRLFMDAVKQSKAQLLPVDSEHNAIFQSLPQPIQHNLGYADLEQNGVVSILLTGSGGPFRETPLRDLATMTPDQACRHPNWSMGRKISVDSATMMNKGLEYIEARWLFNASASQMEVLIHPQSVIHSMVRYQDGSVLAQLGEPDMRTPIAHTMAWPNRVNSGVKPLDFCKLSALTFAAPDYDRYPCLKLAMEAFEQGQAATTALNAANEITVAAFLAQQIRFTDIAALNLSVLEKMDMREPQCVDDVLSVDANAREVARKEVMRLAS
Solutions of the inhibitors in DMSO were prepared to provide a final DMSO concentration of 5% of the total assay volume. […] The oxidation reaction was then initiated with 10 μl of DOXP reductoisomerase (10 μg/ml). […] Reading of the samples was continued until 300 seconds. […] The substrate was kept at a level at least 10 times the Km.

For another test, the target named is E. coli DHPR (Escherichia coli, UniProt P04036). The test can be described thus: Screening of bi-ligands on DHPR, kinetic oxidation of NADPH (Example 38). The test is classed as biochemical. The conditions noted are these: Cibacron Blue at 2.58 μM, read-out: inhibition of DHPR, positive control. Here is the method:
Bi-ligands were produced by the methods of Examples 14 to 18. The bi-ligands were screened for binding to E. coli DHPR. The bi-ligands were screened using a kinetic protocol that spectrophotometrically evaluates oxidation of NADPH.
Dilution of DHPR was prepared in 10 mM HEPES at a pH of 7.4. DHPS was not diluted and was stored in eppindorf tubes.
The L-ASA solution was prepared in the following manner. […] stock solution of ASA was prepared. 100 μl of the ASA stock was mixed with 150 μl of concentrated NaHCO3 and 375 μl of H2O. For use in the assay, 28.8 mM L-ASA equal 625 μl of the solution. The L-ASA stock solution was kept at a temperature of −20° C. After dilution, the pH of the 28.8 mM solution was checked and maintained between 1 and 2.
(§1) The solution for background detection was a 945 μl solution containing 0.1 HEPES (pH 7.8), 1 mM pyruvate, 6 μM NADPH, 40 μM L-ASA, and 7 μl of 1 mg/ml DHPS at 25° C. in the volumes provided above. The sample solution was then mixed and incubated for 10 minutes. Next, 500 nM solutions of the inhibitors and enough DMSO to provide a final DMSO concentration of 5% of the total assay volume were added. The solution was mixed and incubated for an additional 6 minutes.
In DHPR samples, 5 μl of the diluted DHPR enzyme were added. […] Reading of the samples was continued until 300 seconds. […]

Test [3] concerns the target dihydrodipicolinate reductase (DHPR) (Escherichia coli, UniProt P04036). Kind of test: DHPR kinetic assay, spectrophotometric oxidation of NADPH at 340 nm. The conditions noted are these: Cibacron Blue at 2.58 μM; read-out: inhibition of DHPR, positive control. The test is classed as biochemical. Here is the method:
DHPR was diluted in 10 mM HEPES at a pH of 7.4. DHPS (dihydrodipicolinate synthase) was not diluted and was stored in eppindorf tubes.
The L-ASA (L-aspartate semialdehyde) solution was prepared in the following manner. […] stock solution of ASA was prepared. 100 μl of the ASA stock solution was mixed with 150 μl of concentrated NaHCO3 and 375 μl of H2O. For use in the assay, 28.8 mM L-ASA was equal to 625 μl of the solution. The L-ASA stock solution was kept at a temperature of −20° C. After dilution, the pH of the 28.8 mM solution was checked and maintained between 1 and 2.
as §1
In DHPR samples, 5 μl of the diluted DHPR enzyme were added. The sample was mixed for 20 seconds and then the reaction was run for 10 minutes. […] Reading of the samples was continued until 300 seconds. […] The substrate was kept at a level at least 10 times the Km. The final concentration of L-ASA was about 1 mM.

Chain of E. coli DHPR (P04036 whole entry): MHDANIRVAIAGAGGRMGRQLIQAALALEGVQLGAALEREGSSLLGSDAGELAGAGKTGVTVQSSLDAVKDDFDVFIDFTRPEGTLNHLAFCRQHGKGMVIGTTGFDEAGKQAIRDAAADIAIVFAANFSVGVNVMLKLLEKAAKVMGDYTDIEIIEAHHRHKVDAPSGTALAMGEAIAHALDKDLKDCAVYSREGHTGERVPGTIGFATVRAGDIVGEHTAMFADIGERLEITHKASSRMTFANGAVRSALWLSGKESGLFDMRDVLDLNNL
Chain of dihydrodipicolinate reductase (DHPR) (P04036 whole entry): as above

One may read the inhibition as the share of the control response that was lost under treatment. As to `Nc1c(S(=O)(=O)O)cc(Nc2ccc(Nc3nc(Cl)nc(Nc4ccccc4S(=O)(=O)O)n3)c(S(=O)(=O)O)c2)c2c1C(=O)c1ccccc1C2=O` [Cibacron Blue, reference compound], the inhibition at 10.3 µM in test [1] was 50 to 70%. The inhibition at 10.32 µM in test [2] lay within 70 to 80%. Also, the inhibition at 2.58 µM (at E. coli DHPR; in test [3]) was 70 to 80% in each case.
